Test results published in publication PMC9241695, “Selective Metal Chelation by a Thiosemicarbazone Derivative Interferes with Mitochondrial Respiration and Ribosome Biogenesis in Candida albicans” (Microbiology Spectrum, 2022).
In brackets after ≈: the same amount, converted by molar mass. Read-outs that look alike come from different tables or passages of the source.

Columns and labels:
Test in all cases: Antifungal susceptibility testing, microbroth dilution MIC
Assay type in all cases: cell-based
[1] = tested on: C. neoformans H99; conditions: Cryptococcus neoformans, read-out: MIC (μg/mL) against fungi H99
Excerpt: (§1) Compound library. The thiosemicarbazone derivatives Triapine and COTI-2 were purchased from Med Chem Express (MCE). The other 87 thiosemicarbazones used in this study were previously synthesized by our collaborators (1, 2). Their structures are shown in Table 1 and Table S1 to help the reader clearly understand the relationship between structure and activity.
(§2) Strains and culture conditions. Clinically derived C. albicans isolates, including G5, F5, and Gu5, were kindly provided by Professor Joachim Morschhäuser of the University of Würzburg. Other clinical C. albicans isolates were kindly donated by Professor Qingguo Qi of Shandong University and Qianfoshan Hospital of Shandong Province Other Candida strains were obtained from Jinan Central Hospital.
(§3) The zap1 mutant and its complemented strain were kindly provided by Professor Aaron P. Mitchell of Carnegie Mellon University (3). The C. neoformans strains used in this study was kindly donated by Professor Guojian Liao of Southwest University and A. fumigatus strain used in this study was provided by Professor Ling Lu of Nanjing Normal University. […]
(§4) Antifungal susceptibility testing. To determine in vitro antifungal activities, the microbroth dilution method was carried out in RPMI1640 medium according to the guidelines of the Clinical and Laboratory Standards Institute (4, 5). The initial concentration in RPMI1640 medium was 1 × 10^3 CFU/mL for the C. albicans and C. neoformans suspensions but 1 × 10^4 CFU/mL for A. fumigatus. The range of final drug concentrations was 0.0156–64 μg/mL. The plates were incubated at35°C for 24 […]
(§5) h (for C. albicans, C. krusei, C. tropicalis, C. parapsilosis) or 48 h (for C. neoformans, A. fumigatus). The MIC was determined based on visible growth inhibition compared with the control. All experiments were performed in duplicate. […]

[2] = tested on: A. fumigatus AF293; conditions: Aspergillus fumigatus, read-out: MIC (μg/mL) against fungi AF293
Excerpt: as §1, §2, §3, §4, §5

[3] = tested on: C. albicans SC5314; conditions: Candida albicans, read-out: MIC (μg/mL) against fungi SC5314
Excerpt: as §1, §2
as §3, with “University. Before in vitro and in vivo experiments, all C. albicans strains were grown on YPD agar plates. After culturing at 30°C for 24 h, colonies of each strain were cultured in liquid YPD medium at 30°C with continuous shaking” for “University.”
as §4, §5

| MIC ([1]; H99, C. neoformans wild-type strain, 48 h) [µg/mL] | MIC ([2]; AF293, standard strain of A. fumigatus, 48 h) [µg/mL] | MIC ([3]; SC5314, C. albicans wild-type strain, RPMI1640, 35°C, 24 h) [µg/mL] | SMILES | MIC ([1]; H99, 48 h) [µg/mL] | MIC ([2]; AF293, 48 h) [µg/mL] | MIC ([3]; SC5314, 24 h) [µg/mL] |
| --- | --- | --- | --- | --- | --- | --- |
| 4 (≈ 20.5 µM) | 32 (≈ 164 µM) | 32 (≈ 164 µM) | NC(=S)NN=Cc1ncccc1N [Triapine, 3-aminopyridine-2-carboxaldehyde thiosemicarbazone, reference compound] | – | – | – |
| – | – | – | CCC/C(=N\NC(=S)Nc1ccccc1Br)c1ccccn1 [Compound 19v] | 0.25 (≈ 0.663 µM) | 4 (≈ 10.6 µM) | 1 (≈ 2.65 µM) |
